≈ marks a conversion by molar mass, not a printed value.

What is called MIC is the smallest concentration in the dilution series that meets the test's criterion for growth inhibition. A higher MIC goes with a less susceptible organism. For orientation: kcat/Km means the second-order rate constant that governs catalysis at low substrate concentration. What is called Ki is the dissociation constant of the complex between target and ligand, obtained from inhibition or displacement. The low end stands for a stronger hold on the target, the high end for a looser hold on the target.

Assay [1] deals with Escherichia coli. Put plainly: Antimicrobial activity against Escherichia coli TOP10 harboring pADC-11 plasmid carrying entire blaAmpC gene with alanine residue insertion at 215 position by Etest method. It counts as functional.
Assay [2] deals with Acinetobacter baumannii. Put plainly: Ratio of Kcat to Km for Acinetobacter baumannii ADC-33 beta-lactamase to Kcat to Km for Acinetobacter baumannii ADC-11 beta-lactamase.
In assay [3] the test system is Escherichia coli. Put plainly: Antimicrobial activity against Escherichia coli TOP10 harboring pADC-33 plasmid with entire blaAmpC gene by Etest method. It counts as functional.
Assay [4] concerns Escherichia coli. In words: Antimicrobial activity against Escherichia coli TOP10 harboring pADC-11 plasmid with entire blaAmpC gene by Etest method. It counts as functional.
Assay [5] concerns Escherichia coli. In words: Antimicrobial activity against Escherichia coli TOP10 harboring pADC-33 plasmid with entire blaAmpC gene with alanine residue deletion at 215 position by Etest method. It counts as functional.
The test system of assay [6] is Acinetobacter baumannii. Put plainly: Antimicrobial activity against Acinetobacter baumannii AYE expressing VEB-1 gene by Etest method. It counts as functional.
The subject of assay [7] is Acinetobacter baumannii. Put plainly: Antimicrobial activity against Acinetobacter baumannii CIP70.10 by Etest method. It counts as functional.
Assay [8] concerns Escherichia coli. Put plainly: Antimicrobial activity against Escherichia coli TOP10 harboring pADC-33 plasmid by Etest method. It counts as functional.
The subject of assay [9] is Escherichia coli. Put plainly: Antimicrobial activity against Escherichia coli TOP10 harboring pTOPO plasmid by Etest method. It counts as functional.
Assay [10] relates to Acinetobacter baumannii. Put plainly: Antimicrobial activity against Acinetobacter baumannii KI by Etest method. It counts as functional.
The test system of assay [11] is Escherichia coli. Put plainly: Antimicrobial activity against Escherichia coli TOP10 harboring pADC-11 plasmid by Etest method. It counts as functional.
Assay [12] has as its system Escherichia coli. In words: Antimicrobial activity against Escherichia coli TOP10 harboring pADC-33 plasmid carrying entire blaAmpC gene with alanine residue deletion at 215 position and R210P substitution by Etest method. It counts as functional.
For assay [13], the system named is Escherichia coli. In words: Antimicrobial activity against Escherichia coli TOP10 harboring pADC-50 plasmid by Etest method. It counts as functional.
Assay [14] deals with Escherichia coli. Put plainly: Antimicrobial activity against Escherichia coli TOP10 harboring pADC-11 plasmid carrying entire blaAmpC gene with alanine residue insertion at 215 position and R210P substitution by Etest method. It counts as functional.
The subject of assay [15] is Acinetobacter baumannii. Put plainly: Antimicrobial activity against Acinetobacter baumannii beta-lactamase by Etest method. It counts as functional.
In assay [16] the test system is Acinetobacter baumannii. Put plainly: Antimicrobial activity against Acinetobacter baumannii expressing ESAC beta-lactamase by Etest method. It counts as functional.
The target in another assay is ADC-11 (Acinetobacter baumannii, UniProt D6NSM8). Put plainly: Activity of Acinetobacter baumannii ADC-11 beta-lactamase.
Assay [17] has as its system Acinetobacter baumannii. In words: Ratio of Kcat to Ki for Acinetobacter baumannii ADC-33 beta-lactamase to Kcat to Ki for Acinetobacter baumannii ADC-11 beta-lactamase.
The next assay has as its target Beta-lactamase ADC-33 (Acinetobacter baumannii, UniProt B2ZTR6). In words: Activity of Acinetobacter baumannii ADC-33 beta-lactamase.

For `C[C@@H](O)[C@H]1C(=O)N2C(C(=O)O)=C(SCCNC=N)C[C@H]12` [IMIPENEM ANHYDROUS], the MIC against Escherichia coli [1] was determined as 0.38 µg/mL (≈ 1.27 µM); in the assay with Escherichia coli [3], 0.5 µg/mL (≈ 1.67 µM); against Escherichia coli [4], 0.38 µg/mL (≈ 1.27 µM); against Escherichia coli [5], 0.5 µg/mL (≈ 1.67 µM); against Acinetobacter baumannii [6], 1 µg/mL (≈ 3.34 µM); against Acinetobacter baumannii [7] it was 0.25 µg/mL (≈ 0.835 µM). For the same compound, the MIC against Escherichia coli [8] came out at 0.25 µg/mL (≈ 0.835 µM); against Escherichia coli [9], 0.125 µg/mL (≈ 0.418 µM); against Acinetobacter baumannii [10], 2 µg/mL (≈ 6.68 µM); in the assay on Escherichia coli [11], 0.19 µg/mL (≈ 0.635 µM); against Escherichia coli [12], 0.25 µg/mL (≈ 0.835 µM). Also, the kcat/Km with Acinetobacter baumannii [2] was determined as 800000 M⁻¹ s⁻¹.

In the case of `CC(C)(O/N=C(\C(=O)N[C@@H]1C(=O)N2C(C(=O)[O-])=C(C[n+]3ccccc3)CS[C@H]12)c1csc(N)n1)C(=O)O` [CEFTAZIDIME], the MIC in the assay with Escherichia coli [1] was more than 256 µg/mL; in the assay with Escherichia coli [3], more than 256 µg/mL; against Escherichia coli [13], 0.5 µg/mL (≈ 0.915 µM); with Escherichia coli [4], 8 µg/mL (≈ 14.6 µM); in the assay with Escherichia coli [5], 16 µg/mL (≈ 29.3 µM); in the assay on Escherichia coli [14], more than 256 µg/mL. Also, the MIC against Acinetobacter baumannii [6] is more than 256 µg/mL; in the assay on Acinetobacter baumannii [7] it was 2 µg/mL (≈ 3.66 µM); with Escherichia coli [8] it was more than 256 µg/mL; in the assay with Escherichia coli [9] it was 0.125 µg/mL (≈ 0.229 µM); with Acinetobacter baumannii [10], more than 256 µg/mL; against Escherichia coli [11], 0.5 µg/mL (≈ 0.915 µM). Besides, in the assay with Escherichia coli [12], the MIC amounted to 8 µg/mL (≈ 14.6 µM). The kcat/Km in the assay with Acinetobacter baumannii [2] is 1.5e+08 M⁻¹ s⁻¹.

As for `CO/N=C(\C(=O)N[C@@H]1C(=O)N2C(C(=O)[O-])=C(C[n+]3cccc4c3CCC4)CS[C@H]12)c1csc(N)n1` [CEFPIROME], the MIC was 2 µg/mL (≈ 3.89 µM) against Escherichia coli [1]; 4 µg/mL (≈ 7.77 µM) against Acinetobacter baumannii [15]; 4 µg/mL (≈ 7.77 µM) against Escherichia coli [3]; 0.047 µg/mL (≈ 0.0913 µM) against Escherichia coli [13]; 0.125 µg/mL (≈ 0.243 µM) in the assay on Escherichia coli [4]; 0.5 µg/mL (≈ 0.972 µM) in the assay with Escherichia coli [5]. In addition, the minimal inhibitory concentration (MIC) against Escherichia coli [14] is 8 µg/mL (≈ 15.5 µM); in the assay with Acinetobacter baumannii [6] it was more than 256 µg/mL; in the assay on Acinetobacter baumannii [16], 128 µg/mL (≈ 249 µM); against Acinetobacter baumannii [7], 2 µg/mL (≈ 3.89 µM); in the assay with Escherichia coli [8], 0.5 µg/mL (≈ 0.972 µM); against Escherichia coli [9], 0.023 µg/mL (≈ 0.0447 µM). The MIC in the assay on Acinetobacter baumannii [10] was more than 256 µg/mL; against Escherichia coli [11], 0.032 µg/mL (≈ 0.0622 µM); with Escherichia coli [12], 0.125 µg/mL (≈ 0.243 µM). Besides, the kcat/Km in the assay on Acinetobacter baumannii [2] turned out to be 1.25e+07 M⁻¹ s⁻¹.

For the compound `O=C(Cc1cccs1)N[C@@H]1C(=O)N2C(C(=O)[O-])=C(C[n+]3ccccc3)CS[C@H]12`, the kcat/Km in the assay with Acinetobacter baumannii [2] is 800000 M⁻¹ s⁻¹.

For `CC1(C)S[C@@H]2[C@H](NC(=O)[C@H](N)c3ccccc3)C(=O)N2[C@H]1C(=O)O`, the kcat/Km with Acinetobacter baumannii [2] amounted to 500000 M⁻¹ s⁻¹.

For the compound `CO/N=C(\C(=O)N[C@@H]1C(=O)N2C(C(=O)O)=C(COC(C)=O)CS[C@H]12)c1csc(N)n1` [CEFOTAXIME], the MIC with Escherichia coli [1] was 256 µg/mL (≈ 562 µM); against Escherichia coli [3] it was more than 256 µg/mL; against Escherichia coli [13] it was 0.5 µg/mL (≈ 1.1 µM); in the assay with Escherichia coli [4], 8 µg/mL (≈ 17.6 µM); with Escherichia coli [5], 16 µg/mL (≈ 35.1 µM); with Escherichia coli [14] it was more than 256 µg/mL. For the same compound, the MIC against Acinetobacter baumannii [6] is more than 256 µg/mL; in the assay on Acinetobacter baumannii [7] it was 8 µg/mL (≈ 17.6 µM); against Escherichia coli [8] it was 128 µg/mL (≈ 281 µM); against Escherichia coli [9], 0.047 µg/mL (≈ 0.103 µM); against Acinetobacter baumannii [10], more than 256 µg/mL; against Escherichia coli [11] it was 0.5 µg/mL (≈ 1.1 µM). This compound displayed an MIC in the assay with Escherichia coli [12] of 8 µg/mL (≈ 17.6 µM). The Ki at ADC-11 came out at 2.5 µM; on Beta-lactamase ADC-33, 0.5 µM. Further, the specificity constant (kcat/Km) in the assay with Acinetobacter baumannii [17] worked out at 2e+07 M⁻¹ s⁻¹.

For `CC1(C)S[C@@H]2[C@H](NC(=O)Cc3ccccc3)C(=O)N2[C@H]1C(=O)O`, the kcat/Km in the assay on Acinetobacter baumannii [2] came to 1.3e+06 M⁻¹ s⁻¹.
